Patent US12545906B2, “Methods and compositions for selection of functional aptamers” (Aummune Ltd., priority 2018, dated 2026)

Experiments:
[1] = tested on: PBMCs from healthy donors; experiment: cytokine antibody array assay on PBMCs; format: cell-based, human; conditions: varying concentrations of E8
Experimental: (§1) Varying concentrations of E8 aptamer candidate were incubated with red blood cells and, separately, with PBMCs from healthy donors to ensure E8 administration is applicable in a clinical setting. No effects of blood agglutination or red blood cell hemolysis were measured.

MCF10A cells = experiment: selectivity of cell death induction, negative target cells; format: cell-based, human; conditions: selectivity at the target cell level
TNBC9 cells = experiment: induction of caspase-3/7 activation / target killing in TNBC9 cells; format: cell-based, human
Excerpt: (§2) The 10 most abundant aptamer sequences are highlighted. Panel B is a representative screening of the 10 most abundant aptamers from Panel A for significant caspase-3/7 activation in comparison to vehicle (V) and random oligonucleotide (R) in TNBC9 cells. Aptamer IDs labeled 1-10 (E1, E2, . . . . E10). […] STA, staurosporine; PAC, paclitaxel; Random, random oligonucleotide.
Functional enrichment of aptamers that mediate apoptosis of patient-derived xenograft (PDX)-derived triple negative breast cancer (TNBC) cells, termed TNBC9 (Example 8) was followed by selection of lead molecules. Based on sequencing analysis (FIG. 10, Panel A), the 10 most abundant sequences in the functionally enriched aptamer population were selected, synthesized, and folded.
The effectiveness of the selected candidate aptamers in target killing was measured on TNBC9 cells. Specifically, candidate aptamers were synthesized, folded, directly tested for induction of caspase-3/7 activation in TNBC9 cells.

[2] = tested on: MDA-MB-231-derived tumors; experiment: efficacy of E8 on tumor volume in tumor-bearing mice; format: in vivo, NOD/SCID mice
Excerpt: White arrows point to tumor locations. […] Inset region is shown magnified on the right, white arrowhead points to tumor site. […] Asterisks denote a statistically difference with p<0.05 (n=8 mice/group). […] Panel F-G show histochemical analysis of caspase-3 activity in tumor-derived tissue sections (Panel F, vehicle-treated; Panel G, E8-treated). Panel H-I show TUNEL analysis of tumor-derived tissue sections (H, vehicle-treated; I, E8-treated).
To evaluate the efficacy of E8 on tumor volume, the PEGylated aptamer was injected once every 2 days during the course of an 11-day period, at a dose of 100 mg/kg (equivalent in molar terms to standard chemotherapy).

MDA-MB-231 cells = experiment: effect of E8 on MDA-MB-231 cells; format: cell-based
TNBC cells = experiment: effect of E8 on TNBC cells in mouse serum; format: cell-based
Excerpt: as §2
(See, e.g., Yamashita, M. et al. A novel method for evaluating antibody-dependent cell-mediated cytotoxicity by flow cytometry using cryopreserved human peripheral blood mononuclear cells. Sci. Rep. 6, 19772 (2016); Romano, E. et al. Ipilimumab-dependent cell-mediated cytotoxicity of regulatory T cells ex vivo by nonclassical monocytes in melanoma patients. Proc. Natl. Acad. Sci. U.S.A 112, 6140-6145 (2015); Kumar, R. et al. PD-1 blockade restores impaired function of ex vivo expanded CD8 T cells and enhances apoptosis in mismatch repair deficient EpCAMPD-L1 cancer cells. Onco. Targets. Ther. 10, 3453-3465 (2017), each of which is hereby incorporated by reference.).

[3] = tested on: tumor cells in EVOC samples from TNBC patients; experiment: human ex-vivo organ cultures (EVOC), graded pathological assessment; format: cell-based; conditions: 0-4 scale, 2 blinded pathologists; 20-50 μM, two doses, 5 days; EVOC from 2 patients
Experimental: Graded pathological assessment was made on a scale of 0-4 by two blinded pathologists. White stars denote samples in which an effect reached a grade of at least 3. Rnd, random.
The efficacy of aptamer E8 (described in Example 10) was evaluated in human ex-vivo organ cultures (EVOC). EVOCs were freshly derived from two representative TNBC patients and were prepared by Curesponse. 250 μm wide tissue slices were plated onto a 24 well plate in culture medium at high oxygen conditions. Cancer cells of the primary tumor were kept viable for up to 14 days.
The E8 aptamer and other chemotherapies (palbociclib, everolimus, fulvestrant) were administered at concentrations of 20-50 μM to the EVOCs. Following day 1, sample medium was replaced and a second dose of the same concentration of therapies were administered. After 5 days, samples were fixed with 4% w/v paraformaldehyde and histological sections were prepared and stained with hematoxylin-eosin. Effects were graded by 2 blinded pathologists on a 0-4 scale.

red blood cells = experiment: incubation with red blood cells: agglutination and hemolysis; format: cell-based, human; conditions: varying concentrations of E8
Experimental: as §1

[4] = PEGylated aptamer, 100 mg/kg once every 2 days
[5] = following injection of E8 compared to the PBS control

CGGACTCACGCAAGAGCGTTTGGCAGTGTAAAACTGTTTAACGTATCTGCTCGC (chemistry not given here) [Aptamer E8]
cytokine release [1]: Only minor release of certain cytokines | cell killing, negative target cells (MCF10A cells): but not MCF10A cells | induction of apoptosis (caspase-3/7 activation) (TNBC9 cells; compared to vehicle alone or random oligonucleotides): most effective of the selected aptamers at inducing apoptosis | level of direct target killing (TNBC9 cells; in-vitro and ex-vivo, independent biological replicate experiments): 20-40% | cell killing, target cells (TNBC9 cells; selectivity at the target cell level): killing TNBC9 | TUNEL analysis (apoptotic DNA fragmentation) of tumor-derived tissue sections [2, 4]: increase in cell death | histochemical analysis of caspase-3 activity in tumor-derived tissue sections [2, 4]: significant staining | tumor volume change compared to vehicle-treated animals ([2]; PEGylated aptamer, 100 mg/kg once every 2 days over 11 days): decreased significantly | final tumor volume on day 11 ([2]; PEGylated aptamer, 100 mg/kg once every 2 days over 11 days, vehicle 301±51): 168±39 mm^3 | macroscopic appearance of extracted tumors ([2]; PEGylated aptamer, 100 mg/kg once every 2 days, tumors excised day 11): macroscopic signs of tissue death | body weight [2, 5]: No significant changes | physical appearance [2, 5]: No significant changes | effect on MDA-MB-231 cells (MDA-MB-231 cells): remarkable effect | function in mouse serum (TNBC cells): retained function in mouse serum | pathological grade of effect on tumor cells [3]: 3-4 | blood agglutination (red blood cells): No effects | red blood cell hemolysis (red blood cells): No effects
